Reference: ChEMBL document CHEMBL5291721, “A preclinical secondary pharmacology resource illuminates target-adverse drug reaction associations of marketed drugs” (Nat Commun, 2023)

Legend:
[1] = biological target: T1, Cholecystokinin receptor type A (Homo sapiens, UniProt P32238)
T1 sequence (P32238 whole entry): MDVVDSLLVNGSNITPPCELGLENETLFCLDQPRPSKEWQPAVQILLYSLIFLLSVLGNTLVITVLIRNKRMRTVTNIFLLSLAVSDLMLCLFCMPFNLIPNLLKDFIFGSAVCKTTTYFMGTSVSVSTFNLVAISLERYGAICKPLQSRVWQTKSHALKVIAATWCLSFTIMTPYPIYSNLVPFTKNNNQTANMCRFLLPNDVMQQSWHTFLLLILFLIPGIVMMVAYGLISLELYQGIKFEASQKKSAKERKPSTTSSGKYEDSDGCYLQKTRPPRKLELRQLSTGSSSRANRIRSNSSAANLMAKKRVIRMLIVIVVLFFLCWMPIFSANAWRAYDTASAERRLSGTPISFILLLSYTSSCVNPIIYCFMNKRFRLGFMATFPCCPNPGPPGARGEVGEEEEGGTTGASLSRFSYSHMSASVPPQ

[2] = biological target: Kappa-type opioid receptor (Homo sapiens, UniProt P41145)
Kappa-type opioid receptor, sequence (P41145 whole entry): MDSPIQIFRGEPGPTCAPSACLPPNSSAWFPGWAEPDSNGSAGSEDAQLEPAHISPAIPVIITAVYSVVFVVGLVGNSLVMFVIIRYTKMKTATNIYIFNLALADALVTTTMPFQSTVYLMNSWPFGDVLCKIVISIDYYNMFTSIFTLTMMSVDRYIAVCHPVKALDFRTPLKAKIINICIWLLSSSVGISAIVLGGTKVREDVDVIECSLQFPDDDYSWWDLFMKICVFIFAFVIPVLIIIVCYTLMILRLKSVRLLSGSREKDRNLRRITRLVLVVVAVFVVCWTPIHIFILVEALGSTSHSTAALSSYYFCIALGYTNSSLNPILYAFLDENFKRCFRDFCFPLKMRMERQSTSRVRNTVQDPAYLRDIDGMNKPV

Melanocortin receptor 3 = Melanocortin receptor 3 (Homo sapiens, UniProt P41968)
Melanocortin receptor 3, sequence (P41968 whole entry): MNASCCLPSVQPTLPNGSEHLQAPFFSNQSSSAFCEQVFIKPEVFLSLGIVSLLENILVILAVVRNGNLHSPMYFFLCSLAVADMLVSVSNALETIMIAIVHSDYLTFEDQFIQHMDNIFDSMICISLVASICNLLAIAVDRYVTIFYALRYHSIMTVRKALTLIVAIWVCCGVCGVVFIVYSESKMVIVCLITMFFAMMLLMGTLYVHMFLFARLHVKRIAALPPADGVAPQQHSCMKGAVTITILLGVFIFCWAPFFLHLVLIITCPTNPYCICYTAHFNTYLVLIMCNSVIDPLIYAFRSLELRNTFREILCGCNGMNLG

[3] = biological target: T2, Neuropeptide Y receptor type 1 (Homo sapiens, UniProt P25929)
T2 sequence (P25929 whole entry): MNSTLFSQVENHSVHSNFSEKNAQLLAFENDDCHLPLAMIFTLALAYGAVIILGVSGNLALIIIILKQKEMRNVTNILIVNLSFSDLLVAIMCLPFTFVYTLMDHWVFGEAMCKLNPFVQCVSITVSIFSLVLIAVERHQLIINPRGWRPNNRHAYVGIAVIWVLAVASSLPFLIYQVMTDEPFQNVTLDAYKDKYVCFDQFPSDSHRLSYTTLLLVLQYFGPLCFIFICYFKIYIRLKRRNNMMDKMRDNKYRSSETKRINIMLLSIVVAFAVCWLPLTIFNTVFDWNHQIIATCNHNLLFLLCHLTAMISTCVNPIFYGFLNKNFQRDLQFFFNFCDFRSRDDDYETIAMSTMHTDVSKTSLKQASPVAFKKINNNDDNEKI

[4] = biological target: T3, Type-1 angiotensin II receptor (Homo sapiens, UniProt P30556)
T3 sequence (P30556 whole entry): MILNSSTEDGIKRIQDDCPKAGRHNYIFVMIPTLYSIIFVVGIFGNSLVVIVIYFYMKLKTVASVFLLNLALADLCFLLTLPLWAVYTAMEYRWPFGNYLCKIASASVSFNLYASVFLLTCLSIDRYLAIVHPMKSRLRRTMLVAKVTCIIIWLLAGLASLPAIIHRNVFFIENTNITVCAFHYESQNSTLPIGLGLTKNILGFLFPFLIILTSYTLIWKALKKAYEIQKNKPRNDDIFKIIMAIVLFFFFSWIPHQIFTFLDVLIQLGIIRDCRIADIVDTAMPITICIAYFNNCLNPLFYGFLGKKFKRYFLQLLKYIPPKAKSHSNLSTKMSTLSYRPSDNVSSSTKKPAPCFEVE

[5] = biological target: T4, Amine oxidase [flavin-containing] A (Homo sapiens, UniProt P21397); assay type: functional
T4 sequence (P21397 whole entry): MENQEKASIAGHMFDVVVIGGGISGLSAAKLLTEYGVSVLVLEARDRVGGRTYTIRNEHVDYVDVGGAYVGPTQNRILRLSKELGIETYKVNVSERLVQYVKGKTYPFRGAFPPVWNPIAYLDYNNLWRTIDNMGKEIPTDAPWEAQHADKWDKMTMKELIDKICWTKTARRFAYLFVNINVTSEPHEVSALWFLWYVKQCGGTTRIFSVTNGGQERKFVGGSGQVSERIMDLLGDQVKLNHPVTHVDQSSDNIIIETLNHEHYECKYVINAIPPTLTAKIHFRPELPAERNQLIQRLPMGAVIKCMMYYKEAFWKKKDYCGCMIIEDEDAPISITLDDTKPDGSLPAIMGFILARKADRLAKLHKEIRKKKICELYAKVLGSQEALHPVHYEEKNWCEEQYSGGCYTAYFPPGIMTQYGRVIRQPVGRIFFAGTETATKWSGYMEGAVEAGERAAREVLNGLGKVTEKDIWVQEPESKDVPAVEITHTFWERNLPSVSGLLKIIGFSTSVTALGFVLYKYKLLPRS

Adenosine receptor A3 = biological target: T5, Adenosine receptor A3 (Homo sapiens, UniProt P0DMS8)
T5 sequence (P0DMS8 whole entry): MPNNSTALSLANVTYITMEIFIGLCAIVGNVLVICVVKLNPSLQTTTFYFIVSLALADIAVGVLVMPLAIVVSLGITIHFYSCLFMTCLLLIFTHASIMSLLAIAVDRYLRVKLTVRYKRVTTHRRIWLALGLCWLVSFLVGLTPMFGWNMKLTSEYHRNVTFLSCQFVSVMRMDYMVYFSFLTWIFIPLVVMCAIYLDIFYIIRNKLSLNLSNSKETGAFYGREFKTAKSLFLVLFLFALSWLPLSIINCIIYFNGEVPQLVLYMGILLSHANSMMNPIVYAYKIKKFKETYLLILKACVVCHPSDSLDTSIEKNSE

Estrogen receptor = biological target: T6, Estrogen receptor (Homo sapiens, UniProt P03372)
T6 sequence (P03372 whole entry): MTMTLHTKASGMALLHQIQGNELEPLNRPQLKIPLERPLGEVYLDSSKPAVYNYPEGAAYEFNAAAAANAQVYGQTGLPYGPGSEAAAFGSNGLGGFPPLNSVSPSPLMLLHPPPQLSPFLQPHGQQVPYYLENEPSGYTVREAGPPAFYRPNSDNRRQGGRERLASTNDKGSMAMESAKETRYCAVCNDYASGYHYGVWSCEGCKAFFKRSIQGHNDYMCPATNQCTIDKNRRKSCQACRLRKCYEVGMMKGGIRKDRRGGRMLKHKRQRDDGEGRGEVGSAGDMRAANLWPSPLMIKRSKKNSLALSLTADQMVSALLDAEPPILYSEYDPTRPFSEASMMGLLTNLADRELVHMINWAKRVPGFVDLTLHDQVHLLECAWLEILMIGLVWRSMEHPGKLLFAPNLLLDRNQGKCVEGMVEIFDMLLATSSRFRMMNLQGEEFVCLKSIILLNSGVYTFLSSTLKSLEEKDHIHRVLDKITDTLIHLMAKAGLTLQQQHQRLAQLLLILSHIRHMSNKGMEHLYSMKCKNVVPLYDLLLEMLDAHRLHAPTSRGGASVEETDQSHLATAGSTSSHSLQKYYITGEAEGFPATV

Mu-type opioid receptor = Mu-type opioid receptor (Homo sapiens, UniProt P35372)
Mu-type opioid receptor, sequence (P35372 whole entry): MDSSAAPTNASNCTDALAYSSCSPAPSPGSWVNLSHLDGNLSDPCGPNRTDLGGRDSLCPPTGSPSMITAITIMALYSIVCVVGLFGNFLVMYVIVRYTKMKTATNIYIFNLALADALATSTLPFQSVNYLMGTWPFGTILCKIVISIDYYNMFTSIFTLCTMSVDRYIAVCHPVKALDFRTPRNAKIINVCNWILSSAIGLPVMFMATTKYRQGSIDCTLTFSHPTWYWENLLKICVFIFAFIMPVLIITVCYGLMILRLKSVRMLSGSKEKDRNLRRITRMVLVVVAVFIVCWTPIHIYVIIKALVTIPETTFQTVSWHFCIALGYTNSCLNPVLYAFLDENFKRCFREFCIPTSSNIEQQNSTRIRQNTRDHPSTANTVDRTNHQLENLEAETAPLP
Also: assay procedure not described here.

| Compound | AC50 [1] [µM] | AC50 [2] [µM] | AC50 (Melanocortin receptor 3) [µM] | AC50 [3] [µM] | AC50 [4] [µM] | AC50 [5] [µM] | AC50 (Adenosine receptor A3) [µM] | AC50 (Estrogen receptor) [µM] | AC50 (Mu-type opioid receptor) [µM] |
| --- | --- | --- | --- | --- | --- | --- | --- | --- | --- |
| C[N+](C)(C)CCOP(=O)([O-])OC[C@H](O)CO | > 30 | > 30 | > 30 | > 30 | > 30 | > 30 | – | – | – |
| C[C@H](N[C@@H](CCc1ccccc1)C(=O)O)C(=O)N1Cc2ccccc2C[C@H]1C(=O)O | – | – | – | – | – | – | > 30 | > 30 | > 30 |
| CN(C)C/C=C/C(=O)Nc1cc2c(Nc3ccc(F)c(Cl)c3)ncnc2cc1O[C@H]1CCOC1 [AFATINIB] | 11 | > 30 | 28 | > 30 | > 30 | > 30 | – | – | – |
| CCC1(c2ccc(N)cc2)CCC(=O)NC1=O (stereo not given) [AMINOGLUTETHIMIDE] | > 30 | > 30 | > 30 | > 30 | > 30 | > 30 | – | – | – |
| CC1=C(C(=O)OC(C)C)C(c2cccc([N+](=O)[O-])c2)C(C(=O)OC2CN(C(c3ccccc3)c3ccccc3)C2)=C(N)N1 (stereo not given) [AZELNIDIPINE] | > 30 | > 30 | > 30 | > 30 | 12 | > 30 | – | – | – |
| CC(Cc1cccc(C(F)(F)F)c1)NCCOC(=O)c1ccccc1 (stereo not given) [BENFLUOREX] | > 30 | > 30 | > 30 | > 30 | > 30 | > 30 | – | – | – |
| NC[C@H]1CC[C@H](C(=O)Oc2ccc(CCC(=O)O)cc2)CC1 [CETRAXATE] | – | > 30 | – | – | – | > 30 | – | > 30 | > 30 |
| C[C@H](CCC(=O)O)[C@H]1CC[C@H]2[C@@H]3[C@H](O)C[C@@H]4C[C@H](O)CC[C@]4(C)[C@H]3C[C@H](O)[C@]12C [CHOLIC ACID] | – | – | – | – | – | – | > 30 | > 30 | – |
| Cc1cn([C@H]2O[C@@H](CO)[C@H](O)[C@H]2F)c(=O)[nH]c1=O [CLEVUDINE] | – | – | – | – | – | – | > 30 | – | > 30 |
| CC(=O)[C@H]1CC[C@H]2[C@@H]3C=CC4=CC(=O)CC[C@@]4(C)[C@@H]3CC[C@]12C [DYDROGESTERONE] | – | – | – | – | – | – | > 30 | – | > 30 |
| CN[C@]1(c2ccccc2Cl)CCCCC1=O [ESKETAMINE] | > 30 | 13 | > 30 | > 30 | > 30 | > 30 | – | – | – |
| CC(O)(P(=O)(O)O)P(=O)(O)O [ETIDRONIC ACID] | – | – | – | – | – | – | > 30 | – | > 30 |
| CC(=O)OCC(=O)[C@@]1(O)CC[C@H]2[C@@H]3CCC4=CC(=O)CC[C@]4(C)[C@H]3[C@@H](O)C[C@@]21C [HYDROCORTISONE ACETATE] | – | – | – | – | – | – | > 30 | – | > 30 |
| CNCCc1ccc(OC(=O)C(C)C)c(OC(=O)C(C)C)c1 [IBOPAMINE] | > 30 | > 30 | > 30 | > 30 | > 30 | > 30 | – | – | – |
| CCOC(=O)C1=C(C)NC(C)=C(C(=O)OCC)C1c1ccccc1/C=C/C(=O)OC(C)(C)C [LACIDIPINE] | > 30 | 8.6 | > 30 | > 30 | > 30 | > 30 | – | – | – |
| O=C(CCC/C=C\C[C@@H]1[C@@H](CC[C@@H](O)CCc2ccccc2)[C@H](O)C[C@@H]1O)OCCCCO[N+](=O)[O-] [LATANOPROSTENE BUNOD] | – | – | – | – | – | – | – | > 30 | > 30 |
| COC(=O)C1=C(C)NC(C)=C(C(=O)OCCN2CCN(C(c3ccccc3)c3ccccc3)CC2)C1c1cccc([N+](=O)[O-])c1 (stereo not given) [MANIDIPINE 6300] | > 30 | 7.9 | > 30 | > 30 | > 30 | > 30 | – | – | – |
| COC(=O)C[C@](O)(CCCC(C)(C)O)C(=O)O[C@@H]1C(OC)=C[C@]23CCCN2CCc2cc4c(cc2[C@H]13)OCO4 [OMACETAXINE MEPESUCCINATE] | – | – | – | – | – | – | – | > 30 | > 30 |
| COc1cccc(C(=O)CCN[C@@H](C)[C@H](O)c2ccccc2)c1 [OXYFEDRINE] | – | – | – | – | – | – | > 30 | – | 2.7 |
| OC[C@H]1O[C@@H](n2cnc3c2NC=NC[C@H]3O)C[C@@H]1O [PENTOSTATIN] | > 30 | > 30 | > 30 | > 30 | > 30 | > 30 | – | – | – |
| Cc1cccc(C)c1NC(=O)CC12CCCN1CCC2 [PILSICAINIDE] | > 30 | > 30 | > 30 | > 30 | > 30 | > 30 | – | – | – |
| CC(C)c1cccc(C(C)C)c1O [PROPOFOL] | > 30 | – | > 30 | – | > 30 | > 30 | – | – | – |
| CCCN1CC(NS(=O)(=O)N(CC)CC)CC2Cc3c(O)cccc3CC21 (stereo not given) [QUINAGOLIDE] | > 30 | 1.7 | > 30 | > 30 | > 30 | > 30 | – | – | – |
| COc1cc(C)c2c(Oc3cccc(C(F)(F)F)c3)c(OC)cc(NC(C)CCCN)c2n1 (stereo not given) [TAFENOQUINE] | – | – | – | – | – | – | – | 18.4 | 20.6 |
| O=C1OC(OC(=O)c2cccnc2Nc2cccc(C(F)(F)F)c2)c2ccccc21 (stereo not given) [TALNIFLUMATE] | > 30 | > 30 | > 30 | > 30 | > 30 | > 30 | – | – | – |
| O=S1(=O)CCN(CN2CCS(=O)(=O)NC2)CN1 [TAUROLIDINE] | – | > 30 | > 30 | – | – | > 30 | – | > 30 | > 30 |
| COc1ccc2c(C(=S)N(C)CC(=O)O)cccc2c1C(F)(F)F [TOLRESTAT] | – | – | – | – | – | – | – | > 30 | > 30 |
| CCOC(=O)c1c(CSc2ccccc2)n(C)c2cc(Br)c(O)c(CN(C)C)c12 [UMIFENOVIR] | > 30 | > 30 | > 30 | > 30 | > 30 | > 30 | – | – | – |
